These results are taken from patent US7547728B2, “Treating muscle wasting with selective androgen receptor modulators” (priority 2001, dated 2009).

The test system of one test is levator ani muscle. Put plainly: Anabolic activity: levator ani muscle weight in male rats. It counts as in vivo, rat. The following applies: for Levator ani muscle weight compared with intact controls: castrated male rats, 0.1-1 mg/day (FIG. 7); for ED50 / Emax (% of Intact Control) / Relative Afficacy / Relative Potency: levator ani muscle; for ED50 / Emax (% of Intact Control): dose response 0.1-1.0 mg/day; for Relative Afficacy / Relative Potency: relative to TP. The text has this:
(§1) Male Sprague-Dawley rats were purchased from Harlan Biosciences (Indianapolis, Ind.). […] One day before the initiation of drug treatment, groups 4 through 6 and groups 7 through 9 received unilateral or bilateral orchidectomy, respectively, via a midline scrotal incision. […] All drugs given to animals were freshly prepared as solutions in polyethylene glycol 300 (PEG 300). Groups 4 and 7 received treatment with vehicle alone (i.e., PEG 300). […] The ventral prostates, seminal vesicles, and levator ani muscle were removed and weighed. Osmotic pumps were also removed from animals to check for correct pump operation. […] Statistical analyses of parameters from complete blood count or serum chemical profiling, wherever applicable, were performed by single-factor ANOVA with the alpha value set a priori at p<0.05.

For the next test, the target named is T1, androgen receptor (Rattus norvegicus, UniProt P15207).
T1 construct: from tissue
T1 sequence (P15207 1-902): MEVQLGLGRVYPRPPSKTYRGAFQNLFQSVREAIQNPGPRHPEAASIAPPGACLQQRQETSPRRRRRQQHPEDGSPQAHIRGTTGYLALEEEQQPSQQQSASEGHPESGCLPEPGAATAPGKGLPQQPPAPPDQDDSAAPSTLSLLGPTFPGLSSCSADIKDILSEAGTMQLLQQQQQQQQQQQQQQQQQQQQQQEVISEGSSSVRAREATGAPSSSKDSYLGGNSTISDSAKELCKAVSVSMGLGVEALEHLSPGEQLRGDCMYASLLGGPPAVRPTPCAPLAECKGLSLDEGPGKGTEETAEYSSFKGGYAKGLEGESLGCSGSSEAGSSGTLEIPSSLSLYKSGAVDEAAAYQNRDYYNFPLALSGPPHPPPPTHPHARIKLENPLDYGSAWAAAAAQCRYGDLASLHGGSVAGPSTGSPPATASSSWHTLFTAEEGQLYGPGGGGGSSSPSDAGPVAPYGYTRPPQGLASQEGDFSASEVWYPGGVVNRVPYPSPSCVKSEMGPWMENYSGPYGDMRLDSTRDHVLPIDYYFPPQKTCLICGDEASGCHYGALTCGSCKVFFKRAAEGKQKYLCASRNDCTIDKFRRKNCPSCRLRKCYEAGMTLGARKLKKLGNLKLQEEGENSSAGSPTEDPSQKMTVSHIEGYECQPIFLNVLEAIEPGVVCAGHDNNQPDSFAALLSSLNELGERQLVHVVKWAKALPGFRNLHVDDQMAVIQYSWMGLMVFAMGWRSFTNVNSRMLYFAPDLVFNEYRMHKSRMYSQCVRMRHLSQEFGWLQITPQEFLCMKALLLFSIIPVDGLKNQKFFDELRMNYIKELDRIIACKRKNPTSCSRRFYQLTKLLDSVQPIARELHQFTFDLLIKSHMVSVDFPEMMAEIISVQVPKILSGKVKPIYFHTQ
Nature of the test: biochemical. The following applies: for RBA (%): relative binding affinity. It counts as binding.

For a further test, the system named is seminal vesicles. Put plainly: Androgenic activity: seminal vesicle weight in male rats. It counts as in vivo, rat. The following applies: for ED50 / Emax (% of Intact Control) / Relative Afficacy / Relative Potency: seminal vesicle; for ED50 / Emax (% of Intact Control) / Seminal Vesicles weight: castrated rats; for ED50 / Emax (% of Intact Control): dose response 0.1-1.0 mg/day; for Relative Afficacy / Relative Potency: relative to TP; for Agonist character in seminal vesicles: male rats, from organ weights.
Description: as §1

A further test relates to prostate. Nature of the test: Androgenic activity: prostate weight in male rats. Type of test: in vivo, rat. The following applies: for Agonist character in prostate: male rats, from organ weights.
Description: as §1

In a further test the test system is levator ani. Put plainly: Levator ani evaluation in androgen-treated intact female rats. Type of test: in vivo, rat. To be noted: 14 and 28 days treatment. From the text: In these same rats, the levator ani was dissected and evaluated for the expression pattern of MHC family members. […] Physiol. 75(5): 2337-2340, 1993].
Another test has as its system MHC IIb mRNA. Nature of the test: MHC IIb mRNA expression in masseter and gastrocnemius muscle of intact male rats. The following applies: TP 5 mg/kg/day, Compound V 1 mg/kg/day.
In a further test the test system is MHC II b mRNA. Nature of the test: MHC IIb mRNA expression by RT-PCR in masseter muscle of intact female rats. It counts as in vivo, rat. The protocol:
Rat muscle tissue was harvested in 5 volumes of RNA later solution (Ambion, cat.# 7020) and stored at 4° C. until used for RNA isolation. Total RNA was isolated in the FastPrep FP120 instrument (Qbiogene) using RNAqueous-4PCR kit (Ambion, cat # 1914) in combination with FastRNA green tubes (Qbiogene, cat.# 6040-600) at settings for time at 45 sec and speed at 6.5.1 ug of total RNA was used for reverse transcription using Retroscript kit (Ambion, cat# 1710). The mixture was incubated at 42° C. for 60 min, followed by 10 min at 92° C., and then chilled on ice and used in PCR reaction.
Relatively quantitative RT-PCR was used to analyze expression of MHC mRNA in rat musculus masseter (MM) and levator ani (LA). As an internal standard 18S ribosomal RNA was used (QuantumRNA classic 18S Internal Standard, Ambion, cat.# 1716). Linear range of PCR reaction for all primers as well as optimal ratio of 18S primers to competitors to achieve the same level of amplification as the genes of interest was determined.
Primers were obtained from IDT based on the recently published design (Wright et al., J. Appl. Phys. 1997;83:1389), with the following sequence: 5′[…]3′. […]
5 units of Taq DNA polymerase (Roche, cat# 1146165), 200 μM of each dNTP (Invitrogen, cat.#R725-01), 0.2 μM each MHC primer (IDT), 1 μl of cDNA from reverse transcription reaction and 4 μl of 18S primers: competitors mixture were used in 50 μl PCR reaction. […] PCR products were analyzed by agarose gel electrophoresis [20-μl aliquots of a 50-μl PCR reaction loaded on a 1.5% agarose gel (in 1× Tris-Acetate-EDTA buffer) containing 0.2 μg/ml ethidium bromide] to visualize the PCR products. […] Pictures were scanned and the volume of the optical density (OD) of a DNA band was determined by the Image Quant software (Molecular Dynamics), and the background was subtracted (so local background was directly proportional to the amount of DNA over a wide range). […] The content of each experimental group MHC gene was calculated as a percentage of the MHC value in the control group (Table 2).

Where [1] appears, read: castrated rats, 1 mg/day, daily injection.
The mark [2] stands for this setting: prostate, castrated rats, dose response 0.1-1.0 mg/day.

Like-named read-outs stand apart in the source and are kept apart here.

`C[C@](O)(COc1ccc(I)cc1)C(=O)Nc1ccc([N+](=O)[O-])c(C(F)(F)F)c1` [Compound IX]: the “Levator ani muscle weight compared with intact controls” value in the test with levator ani muscle is listed as “close to those of the intact controls”. The “RBA (%)” value at androgen receptor worked out at 2.7%.
Take `C[C@](O)(COc1ccc(Br)cc1)C(=O)Nc1ccc([N+](=O)[O-])c(C(F)(F)F)c1` [Compound VIII]: the “Levator ani muscle weight compared with intact controls” value in the test with levator ani muscle is “close to those of the intact controls”. Besides, at androgen receptor, the “RBA (%)” value stood at 5.3%.
Turning to `C[C@](O)(COc1ccc(Cl)cc1)C(=O)Nc1ccc([N+](=O)[O-])c(C(F)(F)F)c1` [Compound VII], in the test with levator ani muscle, the “Levator ani muscle weight compared with intact controls” value is “exceeding those of intact controls”.
As for `C[C@](O)(COc1ccc(F)cc1)C(=O)Nc1ccc([N+](=O)[O-])c(C(F)(F)F)c1` [Compound VI], in the test with seminal vesicles, the “ED50” value was determined as 0.38 ± 0.26 mg/day, the “Emax (% of Intact Control)” value is 12.7 ± 3.1 % of Intact Control, the “Relative Afficacy” value turned out to be 0.18 and the “Relative Potency” value turned out to be 0.32. In addition, in the test on levator ani muscle, the “Levator ani muscle weight compared with intact controls” value is listed as “close to those of the intact controls”, the “Relative Afficacy” value stood at 0.72 and the “Relative Potency” value stood at 0.34. Moreover, in the test on levator ani muscle (castrated rats), the “ED50” value was 0.44 ± 0.01 mg/day and the “Emax (% of Intact Control)” value is recorded as 74.9 ± 0.4 % of Intact Control.
For `C[C@](O)(COc1c(F)c(F)c(F)c(F)c1F)C(=O)Nc1ccc([N+](=O)[O-])c(C(F)(F)F)c1` [Compound XII], in the test with seminal vesicles (1 mg/day, daily injection), the “Seminal Vesicles weight” value is reported as 7.2 ± 0.9 % of intact. Besides, the “Agonist character in seminal vesicles” value in the test on seminal vesicles was “weak partial agonist”. For the same molecule, the “Levator Ani Muscle weight” value in the test on levator ani muscle (castrated rats, 1 mg/day via osmotic pump) was 122.5±10.4 % of intact. Also, at androgen receptor, the “RBA (%)” value was 13.3%. Besides, the Prostate weight in the test on prostate (setting [1]) was 7.2 ± 1.4 % of intact. Moreover, the “Agonist character in prostate” value in the test on prostate is listed as “weak partial agonist”.
For `C[C@](O)(COc1ccc(F)c(F)c1)C(=O)Nc1ccc([N+](=O)[O-])c(C(F)(F)F)c1` [Compound XI], the “Seminal Vesicles weight” value in the test with seminal vesicles (1 mg/day, daily injection) is 23.6 ± 8.8 % of intact. The “Agonist character in seminal vesicles” value in the test on seminal vesicles was “weak partial agonist”. Moreover, on androgen receptor, the Ki – broadly, a measure of affinity in units of concentration, obtained from inhibition or displacement – worked out at 3.4 ± 0.56 nM. In addition, the Prostate weight in the test with prostate (setting [1]) is on record as 33.1 ± 8.5 % of intact. Also, in the test on prostate, the “Agonist character in prostate” value is recorded as “weak partial agonist”.
Regarding `C[C@](O)(COc1ccc(F)cc1)C(=O)Nc1ccc(C#N)c(C(F)(F)F)c1` [Compound X], the “Seminal Vesicles weight” value is on record as 8.8 ± 1.18 % of intact with seminal vesicles (0.10 mg/day), 9.3 ± 1.57 % of intact with seminal vesicles (0.50 mg/day), 9.8 ± 3.65 % of intact in the test with seminal vesicles (0.75 mg/day) and 10.7±0.91 % of intact with seminal vesicles (1.00 mg/day). Moreover, the “Agonist character in seminal vesicles” value with seminal vesicles is on record as “weak partial agonist”. In addition, the “Levator Ani weight” value in the test on levator ani muscle (castrated rats, 0.10 mg/day) is given as 54.9 ± 5.77 % of intact; in the test with levator ani muscle (castrated rats, 0.50 mg/day) it was 55.0 ± 9.23 % of intact; in the test on levator ani muscle (castrated rats, 0.75 mg/day), 68.9 ± 8.46 % of intact; in the test on levator ani muscle (castrated rats, 1.00 mg/day), 75.2±9.51 % of intact. Further, the Prostate weight is 6.4 ± 0.82 % of intact with prostate (castrated rats, 0.10 mg/day); 6.2 ± 0.56 % of intact with prostate (castrated rats, 0.50 mg/day); 7.6 ± 0.74 % of intact in the test with prostate (castrated rats, 0.75 mg/day); 8.7±1.39 % of intact in the test with prostate (castrated rats, 1.00 mg/day). Also, the “Agonist character in prostate” value in the test with prostate is “weak partial agonist”.
As for `CCC(=O)O[C@H]1CC[C@H]2[C@@H]3CCC4=CC(=O)CC[C@]4(C)[C@H]3CC[C@]12C` [TP, testosterone propionate, reference compound], the “Presence of levator ani muscle after treatment” value in the test with levator ani is reported as “had a muscle present in the location expected for the levator ani”. For the same molecule, the figures for the “MHC type IIb transcription, % of untreated control” value with MHC IIb mRNA (gastrocnemius muscle) and in the test on MHC IIb mRNA (masseter muscle) were 139(±47) % and 120(±14) %, respectively. Moreover, the “ED50” value with seminal vesicles worked out at 0.12 ± 0.02 mg/day; in the test on levator ani muscle (castrated rats), 0.15 ± 0.03 mg/day; in the test on prostate (setting [2]), 0.13 ± 0.03 mg/day. Besides, the “Emax (% of Intact Control)” value in the test on seminal vesicles was 70.0 ± 18.8 % of Intact Control; in the test with levator ani muscle (castrated rats), 104.2 ± 10.1 % of Intact Control; in the test on prostate (setting [2]) it was 120.6 ± 13.4 % of Intact Control. Further, the “Relative Afficacy” value with seminal vesicles is on record as 1.00; in the test with levator ani muscle, 1.00; in the test with prostate (prostate, relative to TP), 1.00. In addition, the “Relative Potency” value was determined as 1.00 with seminal vesicles; 1.00 in the test on levator ani muscle; 1.00 in the test with prostate (prostate, relative to TP). For the same molecule, the entries for the “MHC IIb expression, % of untreated control” value in the test on MHC II b mRNA and in the test on MHC II b mRNA (listed as testosterone propionate) were 141.5% and 142%, respectively.
